Data set [1] deals with Acinetobacter baumannii. Nature of the data set: Antimicrobial activity against Acinetobacter baumannii KI by Etest method. Type of data set: functional.
Data set [2] relates to Acinetobacter baumannii. Nature of the data set: Antimicrobial activity against Acinetobacter baumannii CIP70.10 by Etest method. Type of data set: functional.
Data set [3] concerns Acinetobacter baumannii. In words: Antimicrobial activity against Acinetobacter baumannii AYE expressing VEB-1 gene by Etest method. Type of data set: functional.
Data set [4] deals with Escherichia coli. In words: Antimicrobial activity against Escherichia coli TOP10 harboring pADC-33 plasmid by Etest method. Type of data set: functional.
Data set [5] relates to Escherichia coli. In words: Antimicrobial activity against Escherichia coli TOP10 harboring pADC-50 plasmid by Etest method. Type of data set: functional.
The test system of data set [6] is Escherichia coli. Nature of the data set: Antimicrobial activity against Escherichia coli TOP10 harboring pADC-11 plasmid by Etest method. Type of data set: functional.
The test system of data set [7] is Escherichia coli. Nature of the data set: Antimicrobial activity against Escherichia coli TOP10 harboring pADC-33 plasmid with entire blaAmpC gene by Etest method. Type of data set: functional.
Data set [8] has as its system Escherichia coli. In words: Antimicrobial activity against Escherichia coli TOP10 harboring pADC-11 plasmid with entire blaAmpC gene by Etest method. Type of data set: functional.
The subject of data set [9] is Escherichia coli. In words: Antimicrobial activity against Escherichia coli TOP10 harboring pADC-33 plasmid with entire blaAmpC gene with alanine residue deletion at 215 position by Etest method. Format: functional.
The test system of data set [10] is Escherichia coli. In words: Antimicrobial activity against Escherichia coli TOP10 harboring pADC-11 plasmid carrying entire blaAmpC gene with alanine residue insertion at 215 position by Etest method. Format: functional.
Data set [11] relates to Escherichia coli. Nature of the data set: Antimicrobial activity against Escherichia coli TOP10 harboring pADC-33 plasmid carrying entire blaAmpC gene with alanine residue deletion at 215 position and R210P substitution by Etest method. Format: functional.
Data set [12] has as its system Escherichia coli. In words: Antimicrobial activity against Escherichia coli TOP10 harboring pADC-11 plasmid carrying entire blaAmpC gene with alanine residue insertion at 215 position and R210P substitution by Etest method. Format: functional.
Data set [13] concerns Escherichia coli. In words: Antimicrobial activity against Escherichia coli TOP10 harboring pTOPO plasmid by Etest method. Type of data set: functional.
The subject of data set [14] is Acinetobacter baumannii. Nature of the data set: Antimicrobial activity against Acinetobacter baumannii KI by Etest method in presence of clavulanic acid. Format: functional.
Data set [15] deals with Acinetobacter baumannii. In words: Antimicrobial activity against Acinetobacter baumannii CIP70.10 by Etest method in presence of clavulanic acid. Format: functional.
Data set [16] concerns Acinetobacter baumannii. Nature of the data set: Antimicrobial activity against Acinetobacter baumannii AYE expressing VEB-1 gene by Etest method in presence of clavulanic acid. Format: functional.
The subject of data set [17] is Escherichia coli. Nature of the data set: Antimicrobial activity against Escherichia coli TOP10 harboring pADC-33 plasmid by Etest method in presence of clavulanic acid. Type of data set: functional.
Data set [18] relates to Escherichia coli. Nature of the data set: Antimicrobial activity against Escherichia coli TOP10 harboring pADC-50 plasmid by Etest method in presence of clavulanic acid. Format: functional.
Data set [19] relates to Escherichia coli. Nature of the data set: Antimicrobial activity against Escherichia coli TOP10 harboring pADC-11 plasmid by Etest method in presence of clavulanic acid. Format: functional.
The subject of data set [20] is Escherichia coli. In words: Antimicrobial activity against Escherichia coli TOP10 harboring pADC-33 plasmid carrying entire blaAmpC gene by Etest method in presence of clavulanic acid. Type of data set: functional.
Data set [21] has as its system Escherichia coli. Nature of the data set: Antimicrobial activity against Escherichia coli TOP10 harboring pADC-11 plasmid carrying entire blaAmpC gene by Etest method in presence of clavulanic acid. Format: functional.
Data set [22] concerns Escherichia coli. In words: Antimicrobial activity against Escherichia coli TOP10 harboring pADC-33 plasmid carrying entire blaAmpC gene with alanine residue deletion at 215 position by Etest method in presence of clavulanic acid. Type of data set: functional.
Data set [23] deals with Escherichia coli. In words: Antimicrobial activity against Escherichia coli TOP10 harboring pADC-11 plasmid carrying entire blaAmpC gene with alanine residue insertion at 215 position by Etest method in presence of clavulanic acid. Format: functional.
The subject of data set [24] is Escherichia coli. Nature of the data set: Antimicrobial activity against Escherichia coli TOP10 harboring pADC-33 plasmid carrying entire blaAmpC gene with alanine residue deletion at 215 position and R210P substitution by Etest method in presence of clavulanic acid. Type of data set: functional.
In data set [25] the test system is Escherichia coli. In words: Antimicrobial activity against Escherichia coli TOP10 harboring pADC-11 plasmid carrying entire blaAmpC gene with alanine residue deletion at 215 position and R210P substitution by Etest method in presence of clavulanic acid. Format: functional.
For data set [26], the system named is Escherichia coli. Nature of the data set: Antimicrobial activity against Escherichia coli TOP10 harboring pTOPO plasmid by Etest method in presence of clavulanic acid. Type of data set: functional.
In data set [27] the test system is CO[C@@]1(NC(=O)Cc2cccs2)C(=O)N2C(C(=O)O)=C(COC(N)=O)CS[C@@H]21. In words: Ratio of Kcat to Ki for Acinetobacter baumannii ADC-11 beta-lactamase.
The test system of data set [28] is CC(=O)OCC1=C(C(=O)O)N2C(=O)[C@@H](NC(=O)Cc3cccs3)[C@H]2SC1. In words: (§1) Activity of Acinetobacter baumannii ADC-11 beta-lactamase.
The test system of data set [29] is CC(C)(O/N=C(\C(=O)N[C@@H]1C(=O)N2C(C(=O)[O-])=C(C[n+]3ccccc3)CS[C@H]12)c1csc(N)n1)C(=O)O. Described as §1.
For data set [30], the system named is CC1(C)S[C@@H]2[C@H](NC(=O)Cc3ccccc3)C(=O)N2[C@H]1C(=O)O. Described as §1.
Data set [31] deals with CC1(C)S[C@@H]2[C@H](NC(=O)[C@H](N)c3ccccc3)C(=O)N2[C@H]1C(=O)O. The description is as §1.
For data set [32], the system named is CCN1CCN(C(=O)N[C@@H](C(=O)N[C@@H]2C(=O)N3[C@@H]2SC(C)(C)[C@@H]3C(=O)O)c2ccccc2)C(=O)C1=O. The data set is described as §1.
Data set [33] deals with CO/N=C(\C(=O)N[C@@H]1C(=O)N2C(C(=O)O)=C(COC(C)=O)CS[C@H]12)c1csc(N)n1. Described as §1.
For data set [34], the system named is CO/N=C(\C(=O)N[C@@H]1C(=O)N2C(C(=O)[O-])=C(C[n+]3cccc4c3CCC4)CS[C@H]12)c1csc(N)n1. Described as §1.
For data set [35], the system named is O=C(Cc1cccs1)N[C@@H]1C(=O)N2C(C(=O)[O-])=C(C[n+]3ccccc3)CS[C@H]12. The data set is described as §1.
Data set [36] relates to CC(C)(O/N=C(\C(=O)N[C@@H]1C(=O)N2C(C(=O)[O-])=C(C[n+]3ccccc3)CS[C@H]12)c1csc(N)n1)C(=O)O. Nature of the data set: (§2) Ratio of Kcat to Km for Acinetobacter baumannii ADC-11 beta-lactamase.
In data set [37] the test system is CC1(C)S[C@@H]2[C@H](NC(=O)Cc3ccccc3)C(=O)N2[C@H]1C(=O)O. Described as §2.
Data set [38] relates to CC1(C)S[C@@H]2[C@H](NC(=O)[C@H](N)c3ccccc3)C(=O)N2[C@H]1C(=O)O. The data set is described as §2.
Data set [39] relates to CCN1CCN(C(=O)N[C@@H](C(=O)N[C@@H]2C(=O)N3[C@@H]2SC(C)(C)[C@@H]3C(=O)O)c2ccccc2)C(=O)C1=O. The data set is described as §2.
Data set [40] has as its system CO/N=C(\C(=O)N[C@@H]1C(=O)N2C(C(=O)[O-])=C(C[n+]3cccc4c3CCC4)CS[C@H]12)c1csc(N)n1. Described as §2.

≈ marks a conversion by molar mass, not a printed value.

Turning to `CC1(C)S[C@@H]2[C@H](NC(=O)[C@H](C(=O)O)c3ccsc3)C(=O)N2[C@H]1C(=O)O` [TICARCILLIN], the MIC is greater than 256 µg/mL in the data set with Acinetobacter baumannii [1]; 8 µg/mL (≈ 20.8 µM) against Acinetobacter baumannii [2]; greater than 256 µg/mL against Acinetobacter baumannii [3]; 64 µg/mL (≈ 166 µM) against Escherichia coli [4]; 8 µg/mL (≈ 20.8 µM) in the data set on Escherichia coli [5]; 8 µg/mL (≈ 20.8 µM) with Escherichia coli [6]. The MIC was greater than 256 µg/mL against Escherichia coli [7]; 256 µg/mL (≈ 666 µM) with Escherichia coli [8]; 128 µg/mL (≈ 333 µM) against Escherichia coli [9]; greater than 256 µg/mL against Escherichia coli [10]; 128 µg/mL (≈ 333 µM) with Escherichia coli [11]; greater than 256 µg/mL in the data set on Escherichia coli [12]. In addition, the MIC was found to be 2 µg/mL (≈ 5.2 µM) against Escherichia coli [13]; 64 µg/mL in the data set on Acinetobacter baumannii [14]; 8 µg/mL with Acinetobacter baumannii [15]; 128 µg/mL in the data set on Acinetobacter baumannii [16]; 64 µg/mL with Escherichia coli [17]; 8 µg/mL in the data set with Escherichia coli [18]. The minimal inhibitory concentration (MIC) is 8 µg/mL with Escherichia coli [19]; greater than 256 µg/mL in the data set on Escherichia coli [20]; 256 µg/mL in the data set with Escherichia coli [21]; 128 µg/mL in the data set with Escherichia coli [22]; greater than 256 µg/mL in the data set with Escherichia coli [23]; 128 µg/mL with Escherichia coli [24]. In addition, the MIC was greater than 256 µg/mL with Escherichia coli [25] and 2 µg/mL in the data set with Escherichia coli [26].
On to “ADC-11 (Acinetobacter baumannii) (from UniProt D6NSM8)”, for which the catalytic efficiency (kcat/Km) in data set [27] was found to be 3e+06 M⁻¹ s⁻¹; in data set [36], 1000 M⁻¹ s⁻¹; in data set [37], 4e+06 M⁻¹ s⁻¹; in data set [38], 1e+06 M⁻¹ s⁻¹; in data set [39], 200000 M⁻¹ s⁻¹; in data set [40] it was 4000 M⁻¹ s⁻¹. For the same compound, the Michaelis-Menten constant (Km) in data set [28] came to 210 µM; in data set [29], 10 µM; in data set [30], 12 µM; in data set [31], 7 µM; in [34], 1700 µM. The kcat stood at 550 s⁻¹ in data set [28]; 0.01 s⁻¹ in data set [29]; 45 s⁻¹ in data set [30]; 5 s⁻¹ in data set [31]; 5 s⁻¹ in data set [32]; 0.2 s⁻¹ in data set [33]. For the same compound, the catalytic constant (kcat) worked out at 8 s⁻¹ in [34] and 600 s⁻¹ in [35].

What is called MIC is the least concentration at which growth counts as inhibited. As a reminder, the kcat/Km is the second-order rate constant that governs catalysis at low substrate concentration. What is called Km is the substrate concentration at which the rate is half of its maximum. As a reminder, the kcat is the maximal rate divided by the concentration of active sites.

The record behind these values is ChEMBL document CHEMBL1649315, “Extended-spectrum cephalosporinase in Acinetobacter baumannii” (Antimicrob Agents Chemother, 2010).
